Measured values reported in US20040157738A1, “Novel oxygen containing fused cyclic derivatives and herbicidal, desiccant and defoliate compositions containing them” (ISHIHARA SANGYO KAISHA, LTD., priority 2003, published 2004).

What was measured:
Format in all cases: in vivo
[1] = tested on: barnyardgrass (Echinochloa crus-galli L.): ECHCC; experiment: Test Example 1: pre-emergence herbicidal activity (growth controlling degree); conditions: 500 g a.i./ha, 20th to 21st day after application
Excerpt: (§1) Upland field soil was put into a 1/170,000 ha pot, and seeds of various plants [1. barnyardgrass (Echinochloa crus-galli L.): ECHCC, 2. crabgrass (Digitaria sanguinalis L.): DIGSA, 3. green foxtail (Setaria viridis L.): SETVI, 4. redroot pigweed (Amaranthus retroflexus L.): AMARE, 5. prickly sida (Sida spinosa L.): SIDSP, 6. velvetleaf (Abutilon theophrasti): ABUTH, 7. common cocklebur (Xanthium strumarium L.): XANST, 8. rice (Oryza sativa L.): ORYSA, 9. wheat (Triticum aestivum L.): TRZAX, 10. corn (Zea mays L.): ZEAMX, 11. soybean (Glycine max Merr.): GLXMA] were sown. Then, one day after the sowing, a wettable powder or emulsifiable concentrate having the compound of the present invention formulated in accordance with a usual formulation method, was weighed so that the active ingredient would be a predetermined amount, and diluted with water in an amount of 500 L/ha. The herbicide adjusted was applied by a small size sprayer for pre-emergence treatment. On the 20th to 21st day after the application of the herbicide, the growth of the respective plants was visually observed, and the herbicidal effects were evaluated by growth controlling degrees (%) ranging from 0 (equivalent to the untreated control) to 100 (complete kill), whereby the results shown in Table 11, were obtained. Compound Nos. in Table 11 correspond to Compound Nos. in Table 1 to 7 given hereinbefore.

[2] = tested on: common cocklebur (Xanthium strumarium L.): XANST; experiment: as above; conditions: 500 g a.i./ha, 20th to 21st day after application
Excerpt: as §1

[3] = tested on: corn (Zea mays L.): ZEAMX; experiment: as above; conditions: 500 g a.i./ha, 20th to 21st day after application
Excerpt: as §1

[4] = tested on: crabgrass (Digitaria sanguinalis L.): DIGSA; experiment: as above; conditions: 500 g a.i./ha, 20th to 21st day after application
Excerpt: as §1

[5] = tested on: green foxtail (Setaria viridis L.): SETVI; experiment: as above; conditions: 500 g a.i./ha, 20th to 21st day after application
Excerpt: as §1

[6] = tested on: prickly sida (Sida spinosa L.): SIDSP; experiment: as above; conditions: 500 g a.i./ha, 20th to 21st day after application
Excerpt: as §1

[7] = tested on: redroot pigweed (Amaranthus retroflexus L.): AMARE; experiment: as above; conditions: 500 g a.i./ha, 20th to 21st day after application
Excerpt: as §1

[8] = tested on: rice (Oryza sativa L.): ORYSA; experiment: as above; conditions: 500 g a.i./ha, 20th to 21st day after application
Excerpt: as §1

[9] = tested on: velvetleaf (Abutilon theophrasti): ABUTH; experiment: as above; conditions: 500 g a.i./ha, 20th to 21st day after application
Excerpt: as §1

[10] = tested on: barnyardgrass (Echinochloa crus-galli L.), ECHCG; experiment: Test Example 2: post-emergence (foliage treatment) herbicidal activity (growth controlling degree); conditions: 1.8-2.4 leaf stage
Excerpt: (§2) Upland field soil was put into a 1/170,000 ha pot, and seeds of various plants were sown. Then, when the plants reached predetermined leaf stages [I. barnyardgrass (Echinochloa crus-galli L.), ECHCG: 1.8-2.4 leaf stage, 2. crabgrass (Digitaria sanguinalis L.), DIGSA: 1.5-2.2 leaf stage, 3. green foxtail (Setaria viridis L.), SETVI: 1.7-2.5 leaf stage, 4. redroot pigweed (Amaranthus retroflexus L.), AMARE: 0.1-0.3 leaf stage, 5. prickly sida (Sida spinosa L.), SIDSP: 0.3-0.5 leaf stage, 6. velvetleaf (Abutilon theophrasti), ABUTH: 0.3-0.4 leaf stage, 7. common cocklebur (Xanthium strumarium L.), XANST: 0.2-0.6 leaf stage, 8. rice (Oryza sativa L.), ORYSA: 1.6-2.2 leaf stage, 9. wheat (Triticum aestivum L.), TRZAX: 2.8 leaf stage, 10. corn (Zea mays L.), ZEAMX: 2.2-2.5 leaf stage, 11. soybean (Glycine max Merr.), GLXMA: 0.2-0.3 leaf stage], a wettable powder or emulsifiable concentrate having the compound of the present invention formulated in accordance with a usual formulation method, was weighed so that the active ingredient would be a predetermined amount, and diluted with water in an amount of 500 L/ha. To the diluted solution, 0.1%(v/v) of an agricultural spreader was added. The herbicide adjusted was applied by a small size sprayer for foliage treatment. On the […] day after the application of the herbicide, the growth of the respective plants was visually observed, and the herbicidal effects were evaluated by growth controlling degrees (%) ranging from 0 (equivalent to the untreated control) to 100 (complete kill), whereby the results shown in Table 12, were obtained. Compound Nos. in Table 12 correspond to Compound Nos. in Table 1 to 7 given hereinbefore.

[11] = tested on: corn (Zea mays L.), ZEAMX; experiment: as above; conditions: 2.2-2.5 leaf stage
Excerpt: as §2

[12] = tested on: crabgrass (Digitaria sanguinalis L.), DIGSA; experiment: as above; conditions: 1.5-2.2 leaf stage
Excerpt: as §2

[13] = tested on: green foxtail (Setaria viridis L.), SETVI; experiment: as above; conditions: 1.7-2.5 leaf stage
Excerpt: as §2

[14] = tested on: prickly sida (Sida spinosa L.), SIDSP; experiment: as above; conditions: 0.3-0.5 leaf stage
Excerpt: as §2

[15] = tested on: redroot pigweed (Amaranthus retroflexus L.), AMARE; experiment: as above; conditions: 0.1-0.3 leaf stage
Excerpt: as §2

[16] = tested on: rice (Oryza sativa L.), ORYSA; experiment: as above; conditions: 1.6-2.2 leaf stage
Excerpt: as §2

[17] = tested on: soybean (Glycine max Merr.), GLXMA; experiment: as above; conditions: 0.2-0.3 leaf stage
Excerpt: as §2

[18] = tested on: velvetleaf (Abutilon theophrasti), ABUTH; experiment: as above; conditions: 0.3-0.4 leaf stage
Excerpt: as §2

[19] = tested on: barnyardgrass (Echinochloa oryzicola: ECHOR); experiment: Test Example 3: water application herbicidal activity, paddy (growth controlling degree); conditions: rate 63 g a.i./ha, water application under submerged condition, paddy pot, barnyardgrass at 0.5 leaf stage
Excerpt: (§3) Paddy field soil was put into a {fraction (1/1,000,000)} ha pot, and seeds of barnyardgrass (Echinochloa oryzicola: ECHOR) and japanese bulrush (Scirpus juncoides: SCPJO) were sown and slightly covered with soil. Then the pot was left to stand still in a greenhouse in a state where the depth of flooding water was from 0.5 to 1 cm, and one day later, tubers of japanese ribbon wapato (Sagittaria pygmaea: SAGPY) were planted. Thereafter, the depth of flooding water was maintained at a level of from 3 to 4 cm, and when barnyardgrass and japanese bulrush reached a 0.5 leaf stage, an aqueous diluted solution of a wettable powder or emulsifiable concentrate having the compound of the present invention formulated in accordance with a usual formulation method, was uniformly applied under submerged condition by a pipette so that the dose of the active ingredient would be at a predetermined level. On the other hand, paddy filed soil was put into a {fraction (1/1,000,000)} ha pot and puddled and leveled, and the depth of flooding water was from 3 to 4 cm. One day later, rice (Oryza sativa L.: ORYSA) of 2 leaf stage was transplanted in a depth of 3 cm. On the 4th day after the transplantation, the compound of the present invention was applied in the same manner as described above. On the 14th day after the application of the herbicide, the growth of barnyardgrass, japanese burlush and japanese ribbon wapato was visually observed and on the 21st day after the application of the herbicide, the growth of rice was visually observed, and the herbicidal effects were evaluated by growth controlling degrees (%) ranging from 0 (equivalent to the untreated control) to 100 (complete kill), whereby the results shown in Table 13, were obtained. Compound Nos. in Table 13 correspond to Compound Nos. in Table 1 to 7 given hereinbefore.

[20] = tested on: japanese bulrush (Scirpus juncoides: SCPJO); experiment: as above; conditions: rate 63 g a.i./ha, water application under submerged condition, paddy pot, japanese bulrush at 0.5 leaf stage
Excerpt: as §3

[21] = tested on: rice (Oryza sativa L.: ORYSA); experiment: as above; conditions: rate 63 g a.i./ha, paddy pot, rice of 2 leaf stage transplanted, treated on the 4th day after transplantation
Excerpt: as §3

[22] = tested on: common cocklebur (Xanthium strumarium L.), XANST; experiment: Test Example 2: post-emergence (foliage treatment) herbicidal activity (growth controlling degree); conditions: Xanthium strumarium, 504 h, 31 g a.i./ha, 0.2-0.6 leaf stage
Excerpt: as §2

[23] = tested on: japanese ribbon wapato (Sagittaria pygmaea: SAGPY); experiment: Test Example 3: water application herbicidal activity, paddy (growth controlling degree); conditions: rate 63 g a.i./ha; water application under submerged condition, paddy pot; tubers of japanese ribbon wapato planted
Excerpt: as §3

SMILES: CC1CCc2c(c(Cl)cc(F)c2-c2ncc(C(F)(F)F)cc2Cl)O1 (centres unmarked) [Compound 7-4]
- growth controlling degree, ECHCG [1]: 70%
- growth controlling degree, XANST [2]: 10%
- growth controlling degree, ZEAMX [3]: 40%
- growth controlling degree, DIGSP [4]: 100%
- growth controlling degree, SETVI [5]: 100%
- growth controlling degree, SIDSP [6]: 100%
- growth controlling degree, AMARE [7]: 100%
- growth controlling degree, ORYSA [8]: 30%
- growth controlling degree, ABUTH [9]: 100%
- growth controlling degree, ECHCG ([10]; 63 g a.i./ha): 50%
- growth controlling degree, ZEAMX ([11]; 63 g a.i./ha): 70%
- growth controlling degree, DIGSP ([12]; 63 g a.i./ha): 50%
- growth controlling degree, SETVI ([13]; 63 g a.i./ha): 80%
- growth controlling degree, SIDSP ([14]; 63 g a.i./ha): 80%
- growth controlling degree, AMARE ([15]; 63 g a.i./ha): 95%
- growth controlling degree, ORYSA ([16]; 63 g a.i./ha): 60%
- growth controlling degree, GLXMA ([17]; 63 g a.i./ha): 50%
- growth controlling degree, ABUTH ([18]; 63 g a.i./ha): 100%
- Water Application Herbicidal Activity ECHOR (growth controlling degree) [19]: 70%
- Water Application Herbicidal Activity SCPJO (growth controlling degree) [20]: 90%
- Water Application Herbicidal Activity ORYSA (growth controlling degree) [21]: 0%

SMILES: Cn1nc(-c2c(F)cc(Cl)c3c2CCC(C)(C)O3)c(Cl)c1OC(F)F [Compound 1-40, 4-chloro-3-(8-chloro-6-fluoro-3,4-dihydro-2,2-dimethyl-2H-1-benzopyran-5-yl)-5-(difluoromethoxy)-1-methyl-1H-pyrazole]
- pest or weed control at 31 g/ha ([10]; Echinochloa crus-galli, 504 h, 31 g a.i./ha): 100%
- pest or weed control at 31 g/ha [22]: 100%
- plant injury at 31 g/ha ([11]; Zea mays, 504 h, 31 g a.i./ha): 70%
- pest or weed control at 31 g/ha ([12]; Digitaria sanguinalis, 504 h, 31 g a.i./ha, read-out: growth controlling degree, DIGSP): 100%
- pest or weed control at 31 g/ha ([13]; Setaria viridis, 504 h, 31 g a.i./ha): 100%
- pest or weed control at 31 g/ha ([14]; Sida spinosa, 504 h, 31 g a.i./ha): 100%
- growth controlling degree, AMARE ([15]; 31 g a.i./ha): 100%
- plant injury at 31 g/ha ([16]; Oryza sativa, 504 h, 31 g a.i./ha): 70%
- pest or weed control at 31 g/ha ([17]; Glycine max, 504 h, 31 g a.i./ha): 60%
- pest or weed control at 31 g/ha ([18]; Abutilon theophrasti, 504 h, 31 g a.i./ha): 100%
- pest or weed control at 63 g/ha ([19]; Echinochloa oryzicola, 336 h): 100%
- pest or weed control at 63 g/ha ([20]; Schoenoplectiella juncoides, 336 h): 100%
- Water Application Herbicidal Activity SAGPY (growth controlling degree) [23]: 95%
- pest or weed control at 63 g/ha ([21]; Oryza sativa, 504 h): 35%
